According to patent publication US20130281361A1, “METHODS OF TREATING AND PREVENTING RHINOVIRUS INFECTION” (priority 2010, published 2013):
Entries after “also recorded” stand apart in the source; their conditions may differ. No end group written: not given here.

B1: HNP-5: recombinant human α-defensin (Pepnet), α-5; probably human defensin 5 (HD5) (protein, UniProt Q01523 20-94, looked up)
Defensin alpha 5: ESLQERADEATTQKQSGEDNQDLAISFAGNGLSALRTSGSQARATCYCRTGRCATRESLSGVCEISGRLYRLCCR
modifications: Defensin-5 recombinant

Experiments:
rhinovirus (Rv16) = assay: Rhinovirus (Rv16) infectivity: virus incubated with peptide, titer quantified by TCID50 assay using H1-HeLa cells; assay type: cell-based; conditions: for concentration at which maximal efficacy was reached / reduction of rhinovirus titer at maximal efficacy: Rv16, 1 hour at 37° C.; for reduction of rhinovirus titer at maximal efficacy: at the concentration given under E5
Experimental: To determine if β-defensins had antiviral activity against rhinovirus, recombinant human β-defensins (Peprotech, Rocky Hill, N.J.) were used in assays with rhinovirus (Rv16). Recombinant β-defensin proteins were diluted in PBS to the desired concentrations (0.25-1.25 μg/mL). Virus was added to each tube to a final volume of 40 μL and incubated for 1 hour at 37° C. plus 5% CO2. After incubation, 200 uL of cell culture media was added to each tube and viral titers were quantified in a 50% Tissue Culture Infectious Dose (TCID50) assay using H1-HeLa cells. The TCID50 assay is a standard endpoint dilution assay that is used to quantify how much of a given virus is present in a sample. The limit of detection for rhinovirus in the assay was 1.2 log10 TCID50.
Human α-defensins and LL-37, a broadly expressed antimicrobial peptide from the cathelicidin family, were also tested for antiviral activity against rhinovirus. Recombinant human α-defensins (HNP-1, HNP-3 and HNP-5) (Pepnet, Louisville, Ky.) and recombinant LL-37 (Pepnet, Louisville, Ky.) were used in assays with rhinovirus (Rv16) to determine their antiviral activity. Recombinant HBD-3 (Peprotech, Rocky Hill, N.J.) was used as a control. The recombinant proteins were diluted in PBS to the desired concentrations (see FIG. 2). Virus was added to each tube to a final volume of 40 μL and incubated for 1 hour at 37° C. plus 5% CO2. After incubation, 200 μL of cell culture media was added to each tube and the concentration of virus was quantified by TCID50 assay using H1-HeLa cells. The limit of detection for rhinovirus in the assay was 1.2 log10 TCID50/mL.

adenovirus = conditions: background literature; cited from earlier work
papillomavirus = conditions: background literature; cited from earlier work
rhinovirus = conditions: Proud et al., J Immunol 172:4637-4645, 2004; cited from earlier work

Molecule	antiviral activity against rhinovirus (Rv16), in words (rhinovirus (Rv16); Example 1, FIG. 1)	antiviral activity against rhinovirus (Rv16), in words (rhinovirus (Rv16); Example 2, FIG. 2)	antiviral activity against adenovirus (adenovirus)	antiviral activity against papillomavirus (papillomavirus)	ability to inactivate rhinovirus (rhinovirus)	concentration at which maximal efficacy was reached (rhinovirus (Rv16); Example 2, FIG. 2) [µg/mL]	reduction of rhinovirus titer at maximal efficacy (rhinovirus (Rv16); Example 2, FIG. 2) [Log10 TCID50/mL]
human β-defensin 3 (GIINTLQKYYCRVRGGRCAVLSCLPKEEQIGKCSTRGRKCCRRKK; ends and bridges not checked; cysteine pairing not given here; UniProt P81534 23-67, looked up) [HBD-3, recombinant human β-defensin (Peprotech)]	significantly reduced viral concentration; also recorded: exhibited antiviral activity	most susceptible	–	–	–	–	–
human β-defensin 1 (DHYNCVSSGGQCLYSACPIFTKIQGTCYRGKAKCCK; ends and bridges not checked; cysteine pairing not given here; UniProt P60022 33-68, looked up) [HBD-1, recombinant human β-defensin (Peprotech)]	significantly reduced viral concentration; also recorded: exhibited antiviral activity	–	antiviral activity was observed	antiviral activity was observed	–	–	–
human β-defensin 2 [HBD-2]	significantly reduced viral concentration; also recorded: exhibited antiviral activity	–	not	not	unable to inactivate rhinovirus	–	–
human neutrophil peptide 3 [HNP-3]	–	exhibited antiviral activity	–	–	–	2.5	2.3
human neutrophil peptide 1 [HNP-1]	–	exhibited antiviral activity	antiviral activity was observed	antiviral activity was observed	–	5	1
human β-defensin 4 (EFELDRICGYGTARCRKKCRSQEYRIGRCPNTYACCLRKWDESLLNRTKP; ends and bridges not checked; cysteine pairing not given here; UniProt Q8WTQ1 23-72, looked up) [HBD-4, recombinant human β-defensin (Peprotech)]	significantly reduced viral concentration; also recorded: exhibited antiviral activity	–	–	–	–	–	–
human defensin 5 (ATCYCRTGRCATRESLSGVCEISGRLYRLCCR; ends and bridges not checked; cysteine pairing not given here; UniProt Q01523 63-94, looked up, fragment) [HD5, human α-defensin]	–	–	antiviral activity was observed	antiviral activity was observed	–	–	–
B1	–	most effective; also recorded: exhibited antiviral activity	–	–	–	2	2.5
